The source made the active and inactive calls.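 How the source made its calls: active means a falling-signal curve whose fitted AC50 is at most ten times the top valid dose; inconclusive means flat fit with 30 to 70% inhibition, or a poor fit; inactive means the rest.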
Target: Aurora kinase B (Homo sapiens) (UniProt Q96GD4)
Assay: AURKB enzyme activity inhibitors – biochemical, scintillation, dry powder, set 2, counter-screen for STK33 inhibitor project, dose response (AID 588756)
Settings: gamma-32P-ATP (ATP at Km), P30 filter scintillation

Aurora kinase B (Homo sapiens), sequence (Q96GD4 whole entry, looked up): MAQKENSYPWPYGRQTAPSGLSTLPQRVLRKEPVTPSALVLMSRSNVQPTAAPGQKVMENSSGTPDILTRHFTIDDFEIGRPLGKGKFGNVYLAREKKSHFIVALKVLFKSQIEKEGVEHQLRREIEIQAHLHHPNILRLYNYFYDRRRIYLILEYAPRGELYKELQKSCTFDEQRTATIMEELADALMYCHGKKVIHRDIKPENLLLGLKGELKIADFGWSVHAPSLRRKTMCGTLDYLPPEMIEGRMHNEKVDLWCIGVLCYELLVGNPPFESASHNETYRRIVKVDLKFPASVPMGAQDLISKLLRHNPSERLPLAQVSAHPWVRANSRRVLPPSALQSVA

| Structure (SMILES) | AC50 | activity change, negative = inhibition (at 10 µM (top of the series)) |
| --- | --- | --- |
| COc1cc(/C=C2\SC(N)=NC2=O)ccc1O | > 20 µM (inactive) | – |
| COc1cc(/C=C2\SC(=Nc3ccccc3Cl)NC2=O)ccc1O | 10.1 µM | – |
| COc1cc(/C=C2\SC(=Nc3ccccc3F)NC2=O)ccc1O | > 20 µM (inactive) | – |

Now from value to compound:

| AC50 | activity change, negative = inhibition (at 10 µM (top of the series)) | Structure (SMILES) |
| --- | --- | --- |
| 2.92 µM | – | COc1cc(/C=C2\SC(=NCc3ccccc3)NC2=O)ccc1O |
| – | inactive | COc1cc(/C=C2\S/C(=N/c3ccccn3)NC2=O)ccc1O |

From PubChem BioAssay AID588756 (Broad Institute, 2011)
